Measured values taken from PubChem BioAssay AID1918945 (Molecular Pharmacology Branch, DTP, NCI, 2023).

Tested on: 883617-216-R-J1-PDC complex spheroid viability
Assay: Anticancer human tumor 883617-216-R-J1-PDC patient-derived bladder carcinoma cell line growth inhibition
Details: for IC50: curve of first compound; for viability, T/C: stronger effect = lower value
Outline: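 Multicellular complex spheroids of tumor cells with human endothelial cells (HUVEC) and mesenchymal stem cells; the LSD1 inhibitor iadademstat was combined with standard-of-care or investigational agents. Top concentration at or near clinical Cmax, half-log dilutions; final DMSO ≤0.25%.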

[1] = second compound 0.1 µM, first compound 0.0316 µM
[2] = second compound 0.1 µM, first compound 0.1 µM
[3] = second compound 0.1 µM, first compound 0.316 µM
[4] = second compound 0.1 µM, first compound 1 µM
[5] = second compound 0.1 µM, first compound 3.16 µM
[6] = second compound 0.1 µM, first compound 10 µM
[7] = second compound 0.316 µM, first compound 0.0316 µM
[8] = second compound 0.316 µM, first compound 0.1 µM
[9] = second compound 0.316 µM, first compound 0.316 µM
[10] = second compound 0.316 µM, first compound 1 µM
[11] = second compound 0.316 µM, first compound 3.16 µM
[12] = second compound 0.316 µM, first compound 10 µM
[13] = second compound 1 µM, first compound 0.0316 µM
[14] = second compound 1 µM, first compound 0.1 µM
[15] = second compound 1 µM, first compound 0.316 µM
[16] = second compound 1 µM, first compound 1 µM
[17] = second compound 1 µM, first compound 3.16 µM
[18] = second compound 1 µM, first compound 10 µM
[19] = second compound 3.16 µM, first compound 0.0316 µM
[20] = second compound 3.16 µM, first compound 0.1 µM
[21] = second compound 3.16 µM, first compound 0.316 µM
[22] = second compound 3.16 µM, first compound 1 µM
[23] = second compound 3.16 µM, first compound 3.16 µM
[24] = second compound 3.16 µM, first compound 10 µM
[25] = second compound 10 µM, first compound 0.0316 µM
[26] = second compound 10 µM, first compound 0.1 µM
[27] = second compound 10 µM, first compound 0.316 µM
[28] = second compound 10 µM, first compound 1 µM
[29] = second compound 10 µM, first compound 3.16 µM
[30] = second compound 10 µM, first compound 10 µM
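Note: exposure lasted seven days after three days of spheroid growth.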
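Throughout, for viability, T/C: 100% = DMSO vehicle control luminescence.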

Row | SMILES | IC50 (second compound 0.1 µM) [nM] | IC50 (second compound 0.316 µM) [nM] | IC50 (second compound 1 µM) [nM] | IC50 (second compound 3.16 µM) [nM] | IC50 (second compound 10 µM) [nM] | viability, T/C [1] [%] | viability, T/C [2] [%] | viability, T/C [3] [%] | viability, T/C [4] [%] | viability, T/C [5] [%] | viability, T/C [6] [%] | viability, T/C [7] [%] | viability, T/C [8] [%] | viability, T/C [9] [%] | viability, T/C [10] [%] | viability, T/C [11] [%] | viability, T/C [12] [%] | viability, T/C [13] [%] | viability, T/C [14] [%] | viability, T/C [15] [%] | further results
1 | CC1(C)CCC(CN2CCN(c3ccc(C(=O)NS(=O)(=O)c4ccc(NCC5CCOCC5)c([N+](=O)[O-])c4)c(Oc4cnc5[nH]ccc5c4)c3)CC2)=C(c2ccc(Cl)cc2)C1 + NC1CC1c1ccc(-c2cccc(O)c2)cc1 | 7410 | 7200 | 6430 | 6410 | 4920 | 115 | 116 | 125 | 129 | 117 | 26.2 | 128 | 130 | 131 | 129 | 118 | 23 | 115 | 121 | 111 | viability, T/C [16]: 121%; viability, T/C [17]: 102%; viability, T/C [18]: 17.4%; viability, T/C [19]: 124%; viability, T/C [20]: 109%; viability, T/C [21]: 106%; viability, T/C [22]: 115%; viability, T/C [23]: 107%; viability, T/C [24]: 14%; viability, T/C [25]: 90.9%; viability, T/C [26]: 96.8%; viability, T/C [27]: 79.6%; viability, T/C [28]: 83.1%; viability, T/C [29]: 75.5%; viability, T/C [30]: 11.2%
2 | CC1COCCN1c1cc(C2(S(C)(=N)=O)CC2)nc(-c2ccnc3[nH]ccc23)n1 (stereo not given) + NC1CC1c1ccc(-c2cccc(O)c2)cc1 | 357 | 435 | 501 | 259 | 152 | 97.8 | 78.5 | 51.9 | 35 | 28.9 | 27.7 | 112 | 76.6 | 55 | 38.2 | 31.8 | 25.2 | 101 | 77.4 | 55.3 | viability, T/C [16]: 41.5%; viability, T/C [17]: 29.1%; viability, T/C [18]: 22.4%; viability, T/C [19]: 88.5%; viability, T/C [20]: 65.3%; viability, T/C [21]: 46.1%; viability, T/C [22]: 35%; viability, T/C [23]: 31.5%; viability, T/C [24]: 24.6%; viability, T/C [25]: 81%; viability, T/C [26]: 58.4%; viability, T/C [27]: 34.6%; viability, T/C [28]: 29.3%; viability, T/C [29]: 25.8%; viability, T/C [30]: 22.8%
